# Reference: paper PMC3147164 (mBio, 2011)
# Columns and labels:
# HK_4262 = HK_4262 (Myxococcus xanthus, UniProt Q1D4I6); details: excess ATP; kinase buffer pH 8.0, 10 mM MgCl2; labelled compound
# HK_1190 = HK_1190 (Myxococcus xanthus, UniProt Q1DD24); details: excess ATP; kinase buffer pH 8.0, 10 mM MgCl2; labelled compound
# Sequence of HK_1190 (Q1DD24 205-424): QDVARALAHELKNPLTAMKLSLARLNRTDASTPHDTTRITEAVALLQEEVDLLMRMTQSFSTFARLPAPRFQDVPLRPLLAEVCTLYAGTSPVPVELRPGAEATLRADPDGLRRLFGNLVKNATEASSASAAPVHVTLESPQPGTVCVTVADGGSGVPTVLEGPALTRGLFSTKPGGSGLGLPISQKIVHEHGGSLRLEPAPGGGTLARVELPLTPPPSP
# Sequence of HK_4262 (Q1D4I6 477-702): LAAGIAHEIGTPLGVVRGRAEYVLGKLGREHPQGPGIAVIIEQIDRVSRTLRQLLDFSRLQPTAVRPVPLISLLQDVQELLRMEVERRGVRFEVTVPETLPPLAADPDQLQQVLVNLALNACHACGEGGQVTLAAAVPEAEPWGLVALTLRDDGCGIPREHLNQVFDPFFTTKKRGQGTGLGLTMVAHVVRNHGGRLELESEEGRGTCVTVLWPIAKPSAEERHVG
smiles,measurement,setting,value
Nc1ncnc2c1ncn2[C@@H]1O[C@H](COP(=O)(O)OP(=O)(O)OP(=O)(O)O)[C@@H](O)[C@H]1O [ATP],"autophosphorylation, radiolabel gel assay",HK_4262,Both kinases were capable of autophosphorylation
same,"autophosphorylation, radiolabel gel assay",HK_1190,Both kinases were capable of autophosphorylation
